Experiment [1] deals with integrin mediated tension in NIH/3T3 cells. Kind of experiment: Dose-dependent inhibition of integrin mediated tension quantified by MCR. Type of experiment: cell-based. The note with it: NIH/3T3 cells pretreated 15 min with blebbistatin (10 nm-10 mm as printed), 1 h on 12 pN duplexes. On the procedure:
The non-muscle myosin II inhibitor blebbistatin, which diminishes myosin contractility and thus reduces forces transmitted by focal adhesions, was investigated. NIH/3T3 cells were pretreated with a range of blebbistatin concentrations (10 nm-[…]) for 15 min. The cells onto the surface were incubated with the 12 pN duplexes for 1 h, which was then followed by MCR readout. […] The MCR signal is a direct readout of integrin tension, measuring the dose-dependent dissipation of actomyosin contractile forces.
Cells were incubated with the cRGDfK-labelled duplex surfaces in DMEM for 1 h to promote cell adhesion. Surfaces were then washed with 0.1×SSC. Subsequently, surfaces were incubated in 1× CutSmart® buffer (20 mM Tris-acetate, 10 mM Mg(OAc)2, 50 mM KOAc, 100 μg/mL BSA, pH 7.9) with 100 nM circular template and 1 U/μL T4 ligase at 37° C. for 2 h to ensure complete ligation. Then, 250 μM dNTPs and 0.1 U/μL Phi 29 polymerase were added to the solutions and mixed well. The surfaces were incubated at 37° C. for 90 min to allow for rolling circle amplification. […] Finally, the surface was incubated with 100 nM Cy3B-FISH probe in hybridization buffer (0.5 M NaCl, 20 mM Tris-HCl, 20 mM EDTA, and 0.01% Tween, pH=7.4) at 37° C. for 30 min, rinsed with three washes of 0.1×TNT/0.1% SDS and subjected to fluorescence imaging. […]

Experiment [2] relates to NIH/3T3 cells. Kind of experiment: Brightfield imaging and F-actin staining of drug treated cells. Format: cell-based.

The source of these data is patent US10900069B2, “Devices and methods useful for detecting mechanical forces of ligand receptor interactions” (Emory University, priority 2016, dated 2021).

The structures appear in SMILES notation.

For the molecule `Cc1ccc2c(c1)C(=O)C1(O)CCN(c3ccccc3)C1=N2` (stereo not drawn) [blebbistatin], the MCR signal entry in experiment [1] is listed as “dose-dependent relationship”. For the same molecule, in experiment [2] (highest blebbistatin doses), the F-actin staining result was “more disorganized and shorter actin filaments”. Moreover, the “cell shape by brightfield imaging” value in experiment [2] (increasing drug dose) is given as “cells become more rounded with increasing drug dose”.
